These results are taken from patent US20230220001A1, “METHOD FOR SYNTHESIS OF THIOETHER-[…]” ([…] RESEARCH GMBH, priority 2020, published 2023).

Starred links: 1 amine or outer side, 2 acyl side, 3 side chain; linkers in the order of their positions; H or OH if unused. Positions of bridges follow the written chain, without caps; N, C: chain ends. Non-standard residues stand in square brackets, D forms with d. Residues, ends and D or L forms follow the SMILES beside them. Trp(2-yl) = O=C([C@H](Cc1c([*:3])[nH]c2ccccc12)N[*:1])[*:2]; Ile(4R-OH,5-OH) = C[C@H]([C@H](N)C(=O)O)[C@@H](O)CO; Pro(4,4-F2) = O=C(O)[C@@H]1CC(F)(F)CN1; Hyp = O=C(O)[C@@H]1C[C@@H](O)CN1; Tle = CC(C)(C)[C@H](N)C(=O)O; Aze = O=C(O)[C@@H]1CCN1; Ac3c = NC1(C(=O)O)CC1; Aib = CC(C)(N)C(=O)O; Sar = CNCC(=O)O Some results are limits rather than exact numbers.

The nature of data set [1]: Cell viability assay (BrdU incorporation) on HEK293 cells. Type of data set: cell-based. As to conditions: human, wildtype HEK293 cells, 96 h drug exposure, read-out: Cytotoxicity on HEK-293 cells EC50. As for the experimental part:
(§1) Cytotoxicity of compounds of the invention was assessed using an RNA Polymerase II inhibition assay and by assessing cytotoxicity in a cell viability assay on HEK cells and HEK-OATP1 B3 cells, the results of which are depicted in Table 6.
(§2) Cell Viability Assay (HEK and HEK-OATP1B3 Cells)
(§3) The in vitro toxicity of the inventive compounds was determined in Human embryonic kidney HEK293 cells and in HEK293-OATP1B3 cells that overexpress the organic anion-transporting polypeptide […] (OATP1B3) to assess whether OATP1 B3 mediates active transport of amanitin analogues into the cell. Wildtype HEK293 (ATCC, Manassas, Va.) and HEK293-OATP1 B3 cells (see: Pahl et al., Cytotoxic Payloads for Antibody-Drug Conjugates In: Amatoxins as RNA Polymerase II Inhibiting Antibody-Drug Conjugate (ADC) Payloads CHAPTER 19, The Royal Society of Chemistry 2019, ISBN: 978-1-78801-077-1, or e.g. Bowman et al. Drug Metab Dispos 48:18-24, January 2020) were incubated with compound 7f (α-amanitin) or the compounds as disclosed in Table 6. Cytotoxicity was determined by a BrdU assay. HEK293 and HEK-OATP1B3 cells were plated at 2.5×10^3 cells/well in a 1:1 mixture of Ham's F12 with DMEM containing 10% charcoal-stripped FCS onto poly-D-lysine-coated 96-well plates and grown for 24 hours. Subsequently, cells were incubated with amanitin derivatives at 8 different concentrations (1×10^−6 M to 1.28×10^−11 M, serial 1:5 dilutions). Following 96 h of drug exposure, cell viability was determined by a BrdU incorporation assay (Cell Proliferation ELISA, BrdU, Roche) and chemiluminescence was measured using a FLUOstar Optima plate reader (BMG LABtech). Data analysis was performed with GraphPad Prism 9.0 (GraphPad Software, Inc., La Jolla, Calif.) software to plot curve fits.
(In general: Dividing cells build labelled thymidine or BrdU into new DNA.)

Another data set concerns the target T1, RNA Polymerase II (Homo sapiens, UniProt P24928).
T1 construct: HeLaScribe® Nuclear extract in vitro transcription system (Promega, #E3092); host or cells: HeLa nuclear extract (purchased)
As to the kind of experiment: RNA Polymerase II assay (HeLaScribe nuclear extract in vitro transcription system, RT-PCR quantification of mRNA). The class given is biochemical. As to conditions: for residual RNAP II activity at highest concentration tested: highest concentration tested (range up to 1×10^−6 M). The method, then:
as §1
The in vitro RNA Pol II assay was done using a HeLaScribe® Nuclear extract in vitro transcription system (Promega, #E3092) was used to compare the inhibitory effect of amanitin analogues on RNA Pol at seven concentrations from 6.4×10^−11 M to 1×10^−6 M (serial 1:5 dilutions). As positive control, template run-off transcripts from a CMV immediate early promoter were used (Promega, #E3092). Reverse transcription was followed by real time-PCR for the quantification of the mRNA product. RNA detection was performed using a QuantiFast Probe RT-PCR Plus Kit (Qiagen). The PCR product was monitored by determination of fluorescence on a Real Time PCR CFX Connect Real Time System (Bio-Rad Laboratories Inc.). α-amanitin, analogues and untreated control were each analyzed in triplicates. Negative control, positive control and no target control were analyzed in duplicates. The ACT method was used to calculate the inhibitory effect of the test item on transcription normalized to the untreated control.

Another data set relates to OATP1B3. As to the kind of experiment: Cell viability assay (BrdU incorporation) on HEK293-OATP1B3 cells overexpressing OATP1B3. The class given is cell-based. As to conditions: human, HEK293-OATP1B3 cells (overexpress OATP1B3), 96 h drug exposure, read-out: Cytotoxicity on HEK-OATP1B3 cells EC50. The method, then:
as §1, §2, §3

For data set [2] the following is noted: slow acting toxin; T. Wieland 1986; cited from earlier work.

Take `CC[C@H](C)[C@@H]1NC(=O)CNC(=O)[C@@H]2Cc3c([nH]c4ccccc34)SC[C@H](NC(=O)CNC1=O)C(=O)N[C@@H](CC(N)=O)C(=O)N1C[C@H](O)C[C@H]1C(=O)N[C@@H]([C@@H](C)[C@@H](O)CO)C(=O)N2` [Compound 7d] (cyclo(CN[Hyp][Ile(4R-OH,5-OH)][Trp(2-yl)]GIG); thioether 1-5): the results for the EC50 at 96 h (in data set [1]; in the data set with OATP1B3) were 81 nM and 0.23 nM, respectively. On RNA Polymerase II, inhibition was half-maximal at 6.8 nM (IC50).
Turning to `CC[C@H](C)[C@@H]1NC(=O)CNC(=O)[C@@H]2Cc3c([nH]c4cc(O)ccc34)[S@+]([O-])C[C@H](NC(=O)CNC1=O)C(=O)N[C@@H](CC(N)=O)C(=O)N1C[C@H](O)C[C@H]1C(=O)N[C@@H]([C@@H](C)[C@@H](O)CO)C(=O)N2` [Compound 7f, Alpha-amanitin, reference compound], the EC50 – broadly, the concentration at which the effect is half-maximal – at 96 h in data set [1] came out at 210 nM; with OATP1B3, 5.2 nM. Besides, the IC50 (usually the point on the concentration scale where inhibition reaches its midpoint) on RNA Polymerase II is 2.7 nM. Further, the LD50 (usually the dose expected to kill half of the subjects tested) in data set [2] is 0.05 to 0.1 mg/kg.
On to `CC[C@H](C)[C@@H]1NC(=O)CNC(=O)[C@@H]2Cc3c([nH]c4ccccc34)SC[C@H](NC(=O)[C@H]3CCCN3C1=O)C(=O)N[C@@H](CC(N)=O)C(=O)N1C[C@H](O)C[C@H]1C(=O)N[C@@H]([C@@H](C)[C@@H](O)CO)C(=O)N2` [Compound 7i] (cyclo(CN[Hyp][Ile(4R-OH,5-OH)][Trp(2-yl)]GI[dP]); thioether 1-5), for which the EC50 at 96 h in data set [1] was > 1000 nM. Moreover, at RNA Polymerase II, the IC50 came out at 12 nM and the “residual RNAP II activity at highest concentration tested” value amounted to 20%. The EC50 at 96 h with OATP1B3 stood at 210 nM.
The corresponding values for `CC[C@H](C)[C@@H]1NC(=O)CNC(=O)[C@@H]2Cc3c([nH]c4ccccc34)SC[C@H](NC(=O)CN(C)C1=O)C(=O)N[C@@H](CC(N)=O)C(=O)N1C[C@H](O)C[C@H]1C(=O)N[C@@H]([C@@H](C)[C@@H](O)CO)C(=O)N2` [Compound 7l] (cyclo(CN[Hyp][Ile(4R-OH,5-OH)][Trp(2-yl)]GI[Sar]); thioether 1-5) are > 1000 nM, 15 nM, 10% and 29 nM.
The corresponding values for `CC[C@H](C)[C@@H]1NC(=O)CNC(=O)[C@@H]2Cc3c([nH]c4ccccc34)SC[C@H](NC(=O)C(C)(C)NC1=O)C(=O)N[C@@H](CC(N)=O)C(=O)N1C[C@H](O)C[C@H]1C(=O)N[C@@H]([C@@H](C)[C@@H](O)CO)C(=O)N2` [Compound 7m] (cyclo([Aib]CN[Hyp][Ile(4R-OH,5-OH)][Trp(2-yl)]GI); thioether 2-6) are > 1000 nM, 71 nM, 15% and 120 nM.
The corresponding values for `CC[C@H](C)[C@@H]1NC(=O)CNC(=O)[C@@H]2Cc3c([nH]c4ccccc34)SC[C@H](NC(=O)CNC1=O)C(=O)N[C@@H](CC(N)=O)C(=O)N1CC[C@H]1C(=O)N[C@@H]([C@@H](C)[C@@H](O)CO)C(=O)N2` [Compound 7n] (cyclo([Aze][Ile(4R-OH,5-OH)][Trp(2-yl)]GIGCN); thioether 3-7) are > 1000 nM, 160 nM, 40% and > 100 nM.
Take `CC[C@H](C)[C@@H]1NC(=O)CNC(=O)[C@@H]2Cc3c([nH]c4ccccc34)SC[C@H](NC(=O)[C@@H](C)NC1=O)C(=O)N[C@@H](CC(N)=O)C(=O)N1C[C@H](O)C[C@H]1C(=O)N[C@@H]([C@@H](C)[C@@H](O)CO)C(=O)N2` [Compound 7o] (cyclo(CN[Hyp][Ile(4R-OH,5-OH)][Trp(2-yl)]GI[dA]); thioether 1-5): the EC50 at 96 h was > 1000 nM in data set [1] and 28 nM with OATP1B3. The same molecule yielded an IC50 at RNA Polymerase II of 1.4 nM.
In the same order, the values of `C[C@H]([C@@H]1NC(=O)[C@@H]2C[C@@H](O)CN2C(=O)[C@H](CC(N)=O)NC(=O)[C@@H]2CSc3[nH]c4ccccc4c3C[C@H](NC1=O)C(=O)NCC(=O)N[C@@H](C(C)(C)C)C(=O)NCC(=O)N2)[C@@H](O)CO` [Compound 7p] (cyclo(CN[Hyp][Ile(4R-OH,5-OH)][Trp(2-yl)]G[Tle]G); thioether 1-5) are > 1000 nM, 16 nM and 25 nM.
Regarding `CC[C@H](C)[C@@H]1NC(=O)CNC(=O)[C@@H]2Cc3c([nH]c4ccccc34)SC[C@H](NC(=O)CNC1=O)C(=O)N[C@@H](CC(N)=O)C(=O)N1CC(F)(F)C[C@H]1C(=O)N[C@@H]([C@@H](C)[C@@H](O)CO)C(=O)N2` [Compound 7q] (cyclo(CN[Pro(4,4-F2)][Ile(4R-OH,5-OH)][Trp(2-yl)]GIG); thioether 1-5), the EC50 at 96 h is > 1000 nM in data set [1] and 49 nM in the data set with OATP1B3. This molecule yielded an IC50 against RNA Polymerase II of 110 nM. Besides, the “residual RNAP II activity at highest concentration tested” value at RNA Polymerase II stood at 10%.
Regarding `CC[C@H](C)[C@@H]1NC(=O)CNC(=O)[C@@H]2Cc3c([nH]c4ccccc34)SC[C@H](NC(=O)C3(CC3)NC1=O)C(=O)N[C@@H](CC(N)=O)C(=O)N1C[C@H](O)C[C@H]1C(=O)N[C@@H]([C@@H](C)[C@@H](O)CO)C(=O)N2` [Compound 7r] (cyclo([Ac3c]CN[Hyp][Ile(4R-OH,5-OH)][Trp(2-yl)]GI); thioether 2-6), the half-maximal effective concentration (EC50) at 96 h in data set [1] is > 1000 nM; in the data set on OATP1B3 it was 10 nM. The molecule further gave an IC50 against RNA Polymerase II of 26 nM.
